Assay results: ChEMBL document CHEMBL4616668, “Discovery of a High Affinity, Orally Bioavailable Macrocyclic FXIa Inhibitor with Antithrombotic Activity in Preclinical Species” (J Med Chem, 2020)

Experiments:
[1] = Toxicity in New Zealand White rabbit model of cuticle bleeding time assessed as increase in cuticle bleeding time at 4 mg/kg/hr dosed as continuous intravenous infusion 30 to 60 mins prior to cuticle transection relative to control; format: organism-based, Oryctolagus cuniculus; conditions: in vivo
[2] = Half life in rat liver microsomes; format: ADME, Microsome
[3] = Half life in cynomolgus monkey liver microsomes; format: ADME, Macaca fascicularis, Microsome
[4] = Half life in dog liver microsomes; format: ADME, Canis lupus familiaris, Microsome
Coagulation factor XI = Coagulation factor XI (Homo sapiens, UniProt P03951); experiment: Inhibition of human factor11a using pyro-Glu-Pro-Arg-pNA(para-nitroaniline) substrate by spectrophotometry
Chain of Coagulation factor XI (P03951 19-387 limits assumed): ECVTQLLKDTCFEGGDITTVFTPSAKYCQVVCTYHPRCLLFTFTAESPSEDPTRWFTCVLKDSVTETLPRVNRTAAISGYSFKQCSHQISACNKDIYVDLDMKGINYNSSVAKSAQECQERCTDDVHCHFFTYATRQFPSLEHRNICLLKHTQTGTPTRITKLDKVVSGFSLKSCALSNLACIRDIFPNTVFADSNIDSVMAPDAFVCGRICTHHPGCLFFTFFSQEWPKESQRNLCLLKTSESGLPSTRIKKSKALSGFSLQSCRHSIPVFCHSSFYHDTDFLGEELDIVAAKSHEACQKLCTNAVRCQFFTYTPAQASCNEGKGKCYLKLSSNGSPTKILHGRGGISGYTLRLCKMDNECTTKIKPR
Chain of Coagulation factor XI (P03951 388-625 limits assumed): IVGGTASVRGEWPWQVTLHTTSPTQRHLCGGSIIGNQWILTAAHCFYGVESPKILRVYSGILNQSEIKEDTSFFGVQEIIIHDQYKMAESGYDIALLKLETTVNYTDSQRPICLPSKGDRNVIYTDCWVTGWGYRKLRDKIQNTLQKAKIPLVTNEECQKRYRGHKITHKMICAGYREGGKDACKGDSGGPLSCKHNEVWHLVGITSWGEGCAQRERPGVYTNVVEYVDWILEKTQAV

[5] = Half life in human liver microsomes; format: ADME, Microsome
Plasma [6] = experiment: Anticoagulant activity in human plasma assessed as activated partial thromboplastin time; format: functional
[7] = Oral bioavailability in Sprague-Dawley rat at […]; format: ADME, organism-based; conditions: in vivo
[8] = Clearance in Sprague-Dawley rat at 0.6 mg/kg, iv; format: ADME, organism-based; conditions: in vivo
[9] = Terminal half life in Sprague-Dawley rat at 0.6 mg/kg, iv; format: ADME, organism-based; conditions: in vivo, read-out: beta t1/2 (converted)
[10] = AUC in Beagle dog at 0.4 mg/kg, iv; format: ADME, organism-based, Canis lupus familiaris; conditions: in vivo
[11] = Oral bioavailability in Beagle dog at 1.1 mg/kg; format: ADME, organism-based, Canis lupus familiaris; conditions: in vivo
[12] = AUC in Sprague-Dawley rat at 0.6 mg/kg, iv; format: ADME, organism-based; conditions: in vivo
[13] = Oral bioavailability in cynomolgus monkey at 1.5 mg/kg; format: ADME, organism-based, Macaca fascicularis; conditions: in vivo
[14] = AUC in Beagle dog at 1.1 mg/kg, po; format: ADME, organism-based, Canis lupus familiaris; conditions: in vivo
[15] = Apparent volume of distribution at steady-state in cynomolgus monkey at 0.5 mg/kg, iv; format: ADME, organism-based, Macaca fascicularis; conditions: in vivo, read-out: Vdss(app)
[16] = Terminal half life in cynomolgus monkey at 0.5 mg/kg, iv; format: ADME, organism-based, Macaca fascicularis; conditions: in vivo, read-out: beta t1/2 (converted)
[17] = AUC in cynomolgus monkey at 1.5 mg/kg, po; format: ADME, organism-based, Macaca fascicularis; conditions: in vivo
[18] = Permeability form basolateral to apical side in human Caco2 cells; format: ADME, cell-based; conditions: Caco-2, read-out: permeability
[19] = Apparent volume of distribution at steady-state in Sprague-Dawley rat at 0.6 mg/kg, iv; format: ADME, organism-based; conditions: in vivo, read-out: Vdss(app)
[20] = Clearance in Beagle dog at 0.4 mg/kg, iv; format: ADME, organism-based, Canis lupus familiaris; conditions: in vivo
[21] = AUC in cynomolgus monkey at 0.5 mg/kg, iv; format: ADME, organism-based, Macaca fascicularis; conditions: in vivo
[22] = Clearance in cynomolgus monkey at 0.5 mg/kg, iv; format: ADME, organism-based, Macaca fascicularis; conditions: in vivo
[23] = Terminal half life in Beagle dog at 0.4 mg/kg, iv; format: ADME, organism-based, Canis lupus familiaris; conditions: in vivo, read-out: beta t1/2 (converted)
[24] = Permeability form apical to basolateral side in human Caco2 cells; format: ADME, cell-based; conditions: Caco-2, read-out: permeability
[25] = Apparent volume of distribution at steady-state in Beagle dog at 0.4 mg/kg, iv; format: ADME, organism-based, Canis lupus familiaris; conditions: in vivo, read-out: Vdss(app)
[26] = AUC in Sprague-Dawley rat at […], po; format: ADME, organism-based; conditions: in vivo
Plasma [27] = experiment: Anticoagulant activity in rabbit plasma assessed as activated partial thromboplastin time; format: functional, Oryctolagus cuniculus

Row | half-life [2] | half-life [3] | half-life [4] | Ki (Coagulation factor XI) | half-life [5] | SMILES | EC1.5 (Plasma [6]) | further results
1 |  |  |  |  |  | CC(=O)Oc1ccccc1C(=O)O [ASPIRIN] |  | fold change (FC) [1]: 2.3
2 | 55 min | 27 min | 72 min | 4.9 nM | 75 min | COC(=O)Nc1ccc2c(c1)NC(=O)[C@H](C)CCC[C@H](N1CC(=O)N(c3c(F)ccc(Cl)c3F)CC1=O)c1cc-2ccn1 | 1.4 µM | 
3 | 6 min |  | 15 min | 2.7 nM | 9 min | COC(=O)Nc1ccc2c(c1)NC(=O)[C@H](C)CCC[C@H](N1CC[C@H](c3c(F)ccc(Cl)c3F)OC1=O)c1cc-2cnc1F | 1.2 µM | 
4 | 9 min | 1 min | 6 min | 4.5 nM | 4 min | COC(=O)Nc1ccc2c(c1)NC(=O)[C@H](C)CCC[C@H](N1CCN(c3c(F)ccc(Cl)c3F)CC1=O)c1cc-2ccn1 | 4.6 µM | 
5 | 15 min | 3 min | 13 min | 0.9 nM | 8 min | COC(=O)Nc1ccc2c(c1)NC(=O)[C@H](C)CCC[C@H](N1CCC(c3c(F)ccc(Cl)c3F)CC1=O)c1cc-2ccn1 (mixture of isomers) | 2.8 µM | 
6 |  |  |  |  |  | COC(=O)Nc1ccc2c(c1)NC(=O)[C@H](C)CCC[C@H](N1CCC(c3c(F)ccc(Cl)c3F)=CC1=O)c1cc-2ccn1 | 1.8 µM | 
7 | 29 min | 9 min | 44 min | 1.6 nM | 36 min | COC(=O)Nc1ccc2c(c1)NC(=O)[C@H](C)CCC[C@H](N1CC[C@H](c3c(F)ccc(Cl)c3F)OC1=O)c1ccnc-2c1 | 0.5 µM | bioavailability [7]: 48%; clearance [8]: 33 mL/min/kg
8 | 40 min | 2 min | 27 min | 0.5 nM | 17 min | COC(=O)Nc1ccc2c(c1)NC(=O)[C@H](C)CCC[C@H](N1CCC(c3c(F)ccc(Cl)c3F)NC1=O)c1cc-2ccn1 (stereo partly specified) | 7.5 µM | 
9 | 48 min | 17 min | 38 min | 0.7 nM | 55 min | COC(=O)Nc1ccc2c(c1)NC(=O)[C@H](C)CCC[C@H](N1CC[C@H](c3c(F)ccc(Cl)c3F)OC1=O)c1ncc-2[nH]1 | 0.6 µM | half-life [9]: 84 min; AUC [10]: 0.285 µM·h; bioavailability [11]: 57%; bioavailability [7]: 54%; AUC [12]: 0.52 µM·h; bioavailability [13]: 29%; AUC [14]: 0.446 µM·h; Vd [15]: 9.2 L/kg; half-life [16]: 84 min; clearance [8]: 33 mL/min/kg; AUC [17]: 0.263 µM·h; Papp B→A [18]: 23.8 ×10⁻⁶ cm/s; Vd [19]: 3.2 L/kg; clearance [20]: 38 mL/min/kg; AUC [21]: 0.233 µM·h; clearance [22]: 56 mL/min/kg; half-life [23]: 114 min; Papp A→B [24]: 3.8 ×10⁻⁶ cm/s; Vd [25]: 5.1 L/kg; AUC [26]: 0.687 µM·h
10 |  |  |  |  |  | COC(=O)Nc1ccc2c(c1)NC(=O)[C@H](C)CCC[C@H](N1CCC(c3c(F)ccc(Cl)c3F)=CC1=O)c1cc-2ccn1.O=C(O)C(F)(F)F |  | EC1.5 (Plasma [27]): 26 µM
11 | 9 min | 2 min | 21 min | 1.8 nM | 17 min | COC(=O)Nc1ccc2c(c1)NC(=O)[C@H](C)CCC[C@H](N1CC[C@H](c3c(F)ccc(Cl)c3F)OC1=O)c1cncc-2c1 | 0.6 µM | 
12 | 35 min | 12 min | 27 min | 0.6 nM | 56 min | COC(=O)Nc1ccc2c(c1)NC(=O)[C@H](C)CCC[C@H](N1CC[C@H](c3c(F)ccc(Cl)c3F)OC1=O)c1cc-2ccn1 | 0.5 µM | bioavailability [7]: 37%; clearance [8]: 23 mL/min/kg
13 | 60 min | 80 min | 64 min | 14 nM | 76 min | COC(=O)Nc1ccc2c(c1)NC(=O)[C@H](C)CCC[C@H](N1CCN(c3c(F)ccc(Cl)c3F)C(=O)C1=O)c1cc-2ccn1 | 4.3 µM | 
